Measurements published in patent US20070134261A1, “Effectors of innate immunity” (priority 2001, published 2007).
In brackets after ≈: the same amount, converted by molar mass. Read-outs that look alike come from different tables or passages of the source. Marks after values point to notes of the source that are not given here. Residues, ends and D or L forms follow the SMILES beside them. No end group written: not given here.

Assays:
Salmonella = Salmonella infection in BALB/c mice (viable bacteria in spleen); assay type: in vivo, mouse; settings: mouse, in vivo, ip
Experimental: (§1) BALB/c mice were given 1×10^5 Salmonella and cationic peptide (200 μg) by intraperitoneal injection. The mice were monitored for 24 hours at which point they were euthanized, the spleen removed, homogenized and resuspended in PBS and plated on Luria Broth agar plates with Kanamycin (50 μg/ml). The plates were incubated overnight at 37° C. and counted for viable bacteria (Table 49 and 50). CD-1 mice were given 1×10^8 S. aureus in 5% porcine mucin and cationic peptide (200 μg) by intraperitoneal injection (Table 51). The mice were monitored for 3 days at which point they were euthanized, blood removed and plated for viable counts. CD-1 male mice were given 5.8×10^6 CFU EHEC bacteria and cationic peptide (200 μg) by intraperitoneal (IP) injection and monitored for 3 days (Table 52). […] Many of the cationic peptides were shown not to be directly antimicrobial as tested by the Minimum Inhibitory Concentration (MIC) assay (Table 54).

[1] = tested on: human bronchial epithelial cells (HBE); assay: LDH release assay (Cytotoxicity Detection Kit); assay type: cell-based; settings: 100 μg/ml, 24 hours; no peptide control 1.0 ± 0.05
Procedure, shortened: (§2)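 Both read-outs were colorimetric at OD490 on HBE cells after 24 h with 100 μg of each peptide. The WST-1 assay reported viability through mitochondrial dehydrogenase cleavage of the tetrazolium salt. The LDH assay tested the removed supernatant for enzyme leaked from membrane-damaged cells.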

[2] = tested on: A549 human epithelial cells; assay: Induction of chemokines (IL-8, MCP-1) in A549 cells (ELISA); assay type: cell-based; settings: peptide 10 ug/ml, 24 hr
Experimental: The murine macrophage cell line RAW 264.7, THP-1 cells (human monocytes), a human epithelial cell line (A549), human bronchial epithelial cells (16HBEo14), and whole human blood were used. HBE cells were grown in MEM with Earle's. THP-1 cells were grown and maintained in RPMI 1640 medium. The RAW and A549 cell lines were maintained in DMEM supplemented with 10% fetal calf serum. […] DMEM was aspirated from cells grown overnight and replaced with fresh medium. After incubation of the cells with peptide, the release of chemokines into the culture supernatant was determined by ELISA (R&D Systems, Minneapolis, Minn.).

[3] = assay type: cell-based
BALB/c mice = assay: Lethal endotoxemia in galactosamine-sensitized BALB/c mice; assay type: in vivo; settings: 2 μg LPS; peptide 200 μg/mouse = 8 mg/kg IP 15 min after LPS; 48 hours; no peptide 10
HBE cells = assay: WST-1 assay (cell viability); assay type: cell-based, human
Procedure, shortened: as §2

[4] = tested on: RAW 264.7 mouse macrophage cells; assay type: cell-based; settings: Peptide 20 μg/ml; 100 ng/ml E. coli 0111:B4 LPS, 6 h
S. aureus = assay: Murine S. aureus infection model (CD-1 mice); assay type: in vivo, mouse; settings: peptide 200 μg IP; for CFU/ml (blood): 3 days, No Peptide 7.61 ± 1.7 × 10^3; for # Mice Survived (3 days)/Total mice in group: No Peptide 6/8
Experimental: as §1

[5] = tested on: Human monocytic cells, THP-1; assay: LPS-induced TNFα secretion by THP-1 cells (ELISA); settings: LPS stimulation for 60 min
Human Jurkat T cells = assay: SDF-1 induced migration of human Jurkat T cells (Transwell); assay type: cell-based; settings: positive control 100%
Experimental: SDF-1, a C-X-C chemokine is a natural ligand for HIV-1 coreceptor-CXCR4. The chemokine receptors CXCR4 and CCR5 are considered to be potential targets for the inhibition of HIV-1 replication. […] The migration assays were performed as follows. Human Jurkat T cells were resuspended to 5×10^6/ml in chemotaxis medium (RPMI 1640/10 mM Hepes/0.5% BSA). Migration assays were performed in 24 well plates using […] polycarbonate Transwell inserts (Costar). Briefly, peptide or controls were diluted in chemotaxis medium and placed in the lower chamber while 0.1 ml cells (5×10^6/ml) was added to the upper chamber. After 3 hr at 37° C., the number of cells that had migrated into the lower chamber was determined using flow cytometry. The medium from the lower chamber was passed through a FACscan for 30 seconds, gating on forward and side scatter to exclude cell debris. The number of live cells was compared to a “100% migration control” in which 5×10^5/ml cells had been pipetted directly into the lower chamber and then counted on the FACscan for 30 seconds.

S. Typhimurium SL1344 = assay: Intracellular survival/replication of S. Typhimurium SL1344 in IFN-γ-primed RAW cells (gentamicin-resistance assay); assay type: cell-based, Salmonella Typhimurium; settings: pretreated with inhibitor 30 min prior to infection (50 μM U 0126, 50 μM PD 98059)
A549 epithelial cells = assay: Human Operon arrays (PRHU04-S1) of A549 cells treated with peptide alone (Tables 31-37, 53); settings: 50 μg/ml, 4 h
[6] = Staphylococcus aureus, overnight, 96-well plate

CC[C@H](C)[C@H](NC(=O)[C@H](CS)NC(=O)[C@H](CCSC)NC(=O)[C@H](CCCNC(=N)N)NC(=O)[C@@H](N)CCCNC(=N)N)C(=O)N[C@@H](CCCCN)C(=O)N[C@H](C(=O)N[C@@H](CS)C(=O)N[C@H](C(=O)N[C@@H](CCCNC(=N)N)C(=O)NCC(=O)N[C@H](C(=O)N[C@@H](CS)C(=O)N[C@@H](CCCNC(=N)N)C(=O)N[C@@H](CCCNC(=N)N)C(=O)N[C@@H](CCCCN)C(=O)N[C@@H](CS)C(=O)N[C@@H](CCCNC(=N)N)C(=O)N[C@@H](CCCCN)C(=O)O)C(C)C)C(C)C)C(C)C [SEQ ID NO: 26] (H-RRMCIKVCVRGVCRRKCRK-OH; N-terminus and C-terminus assumed)
Viable Bacteria in the Spleen (Salmonella): 7.1 ± 1.37 × 10^4 CFU/ml | LDH Release (OD490 nm) [1]: 0.93 ± 0.04 OD490 nm | IL-8 [2]: 0.201 ng/mL | MIC, C. rhod. ([3]; 24 h): 2 µg/mL (≈ 0.851 µM) | MIC, E. coli ([3]; 24 h): 0.5 µg/mL (≈ 0.213 µM) | MIC, EHEC ([3]; 24 h): 0.5 µg/mL (≈ 0.213 µM) | MIC, P. aerug. ([3]; 24 h): 64 µg/mL (≈ 27.2 µM) | MIC, S. aureus ([3]; 24 h): 32 µg/mL (≈ 13.6 µM) | MIC, S. typhim. ([3]; 24 h): 2 µg/mL (≈ 0.851 µM) | Survival (BALB/c mice): 0% | OD490 nm (WST-1 cell viability) (HBE cells): 1.42 ± 0.11 OD490 nm | Inhibition of TNF-α [4]: 54.9 ± 1.6%

CC[C@H](C)[C@H](NC(=O)[C@H](CCCNC(=N)N)NC(=O)[C@H](CS)NC(=O)[C@H](CC(C)C)NC(=O)[C@@H](N)CC(C)C)C(=O)N[C@H](C(=O)N1CCC[C@H]1C(=O)N[C@H](C(=O)N[C@H](C(=O)N1CCC[C@H]1C(=O)N[C@@H](Cc1c[nH]c2ccccc12)C(=O)N[C@@H](CS)C(=O)N[C@@H](CCCCN)C(=O)O)[C@@H](C)CC)C(C)C)C(C)C [SEQ ID NO: 5] (H-LLCRIVPVIPWCK-OH; N-terminus and C-terminus assumed)
Viable Bacteria in the Spleen (Salmonella): 2.75 ± 0.59 × 10^4 CFU/ml | CFU/ml (blood) (S. aureus): 3.28 ± 1.7 × 10^3 CFU/ml | # Mice Survived (3 days)/Total mice in group (S. aureus): 4/4 | MIC, C. rhod. ([3]; 24 h): 64 µg/mL (≈ 41.6 µM) | MIC, E. coli ([3]; 24 h): 128 µg/mL (≈ 83.1 µM) | MIC, EHEC ([3]; 24 h): 64 µg/mL (≈ 41.6 µM) | MIC, S. aureus [3, 6]: > | Survival (BALB/c mice): 17% | Inhibition of TNF-α [4]: 65.6 ± 1.6%

SLPIKHDRLPATS [SEQ ID NO: 15]
MIC, C. rhod. ([3]; 24 h): 128 µg/mL | MIC, E. coli ([3]; 24 h): 128 µg/mL | MIC, EHEC ([3]; 24 h): 64 µg/mL | MIC, S. aureus [3, 6]: > | Survival (BALB/c mice): 0% | Inhibition of TNF-α [4]: 69.4 ± 0.84%

CC[C@@]1([C@@H]2O[C@@H]([C@H]3O[C@@](O)(CO)[C@H](C)C[C@@H]3C)C[C@@H]2C)CC[C@H]([C@]2(C)CC[C@]3(C[C@H](O)[C@@H](C)[C@@H]([C@@H](C)[C@@H](OC)[C@H](C)C(=O)O)O3)O2)O1 [Monensin]
TNFα within cells (cytoplasmic extracts) [5]: accumulation of TNFα within cells

SDF-1
Migration (%) (Human Jurkat T cells; Experiment 1, SDF-1 (100 ng/ml) alone): 32% | Migration (%) (Human Jurkat T cells; Experiment 2, SDF-1 (100 ng/ml) alone): 40%

SEQ 1D 1 (LLGDFFRKSKEKIGKEFKRIVQRIKDFLRNLVPRTES)
Migration (%) (Human Jurkat T cells; Experiment 1, SDF-1 + peptide (50 μg/ml)): 0% | Migration (%) (Human Jurkat T cells; Experiment 2, SDF-1 + peptide (50 μg/ml)): 0%

N#CC(=C(/N)Sc1ccccc1N)/C(C#N)=C(\N)Sc1ccccc1N [U 0126]
Effect: bacterial filamentation (bacterial stress) (S. Typhimurium SL1344): Decrease bacterial filamentation (bacterial stress)^c | Effect: number of intracellular S. Typhimurium (S. Typhimurium SL1344): Increase in the number of intracellular S. Typhimurium

CSCC[C@H](NC(=O)CNC(=O)[C@H](CCCNC(=N)N)NC(=O)[C@H](CCSC)NC(=O)[C@H](C)NC(=O)[C@@H](NC(=O)[C@H](CCCCN)NC(=O)[C@@H](NC(=O)[C@H](CS)NC(=O)[C@H](CCC(N)=O)NC(=O)[C@@H](N)CCCCN)C(C)C)C(C)C)C(=O)N[C@@H](C)C(=O)N[C@@H](CC(C)C)C(=O)N[C@@H](CCCNC(=N)N)C(=O)N[C@@H](CCCNC(=N)N)C(=O)N[C@@H](CS)C(=O)N[C@@H](CCCCN)C(=O)O [SEQ ID NO: 30] (H-KQCVKVAMRGMALRRCK-OH; N-terminus and C-terminus assumed)
Fold Up regulation of Gene Expression relative to Untreated Cells: Cell cycle gene (S70622) (A549 epithelial cells): 8.5 fold | Fold Up regulation of Gene Expression relative to Untreated Cells: Dehydrogenase (D17793) (A549 epithelial cells): 2.3 fold | Fold Up regulation of Gene Expression relative to Untreated Cells: Forkhead protein (AF042832) (A549 epithelial cells): 14.1 fold | Fold Up regulation of Gene Expression relative to Untreated Cells: Homeobox protein (AC004774) (A549 epithelial cells): 3.2 fold | Fold Up regulation of Gene Expression relative to Untreated Cells: Hypothetical Protein (AK002104) (A549 epithelial cells): 4.7 fold | Fold Up regulation of Gene Expression relative to Untreated Cells: Hypothetical Protein (AL022393) (A549 epithelial cells): 4.4 fold | Fold Up regulation of Gene Expression relative to Untreated Cells: IL-10 Receptor (U00672) (A549 epithelial cells): 2.6 fold | Fold Up regulation of Gene Expression relative to Untreated Cells: KIAA0284 Protein (AB006622) (A549 epithelial cells): 3.4 fold | Fold Up regulation of Gene Expression relative to Untreated Cells: Peroxisome factor (AB013818) (A549 epithelial cells): 3.4 fold | Fold Up regulation of Gene Expression relative to Untreated Cells: Polypeptide (AF105424) (A549 epithelial cells): 2.5 fold | Fold Up regulation of Gene Expression relative to Untreated Cells: Protein (AL050261) (A549 epithelial cells): 3.3 fold | Fold Up regulation of Gene Expression relative to Untreated Cells: Receptor (AF112461) (A549 epithelial cells): 2.4 fold | Fold Up regulation of Gene Expression relative to Untreated Cells: SPR1 protein (AB031480) (A549 epithelial cells): 3.0 fold | Fold Up regulation of Gene Expression relative to Untreated Cells: Transferase (AF038664) (A549 epithelial cells): 12.3 fold | Fold Up regulation of Gene Expression relative to Untreated Cells: Transferase (M63509) (A549 epithelial cells): 2.7 fold | Fold Up regulation of Gene Expression relative to Untreated Cells: Unknown (AL096803) (A549 epithelial cells): 4.8 fold | Fold Up regulation of Gene Expression relative to Untreated Cells: Zinc finger protein (AF061261) (A549 epithelial cells): 2.6 fold | Viable Bacteria in the Spleen (Salmonella): 5.79 ± 0.43 × 10^3 CFU/ml | IL-8 [2]: 0.284 ng/mL | CFU/ml (blood) (S. aureus): 1.29 ± 0.04 × 10^2 CFU/ml | # Mice Survived (3 days)/Total mice in group (S. aureus): 4/4 | MIC, C. rhod. ([3]; 24 h): 16 µg/mL (≈ 8.09 µM) | MIC, E. coli ([3]; 24 h): 16 µg/mL (≈ 8.09 µM) | MIC, EHEC ([3]; 24 h): 4 µg/mL (≈ 2.02 µM) | MIC, P. aerug. ([3]; 24 h): 128 µg/mL (≈ 64.7 µM) | MIC, S. typhim. ([3]; 24 h): 16 µg/mL (≈ 8.09 µM) | MIC, S. aureus [3, 6]: >

DLPAKRGSAPGST (Cationic peptide) [SEQ ID NO: 12, Formula B cationic peptide]
MIC, E. coli ([3]; Escherichia coli, overnight, 96-well plate): > | MIC, S. aureus [3, 6]: > | Survival (BALB/c mice): 17% | Inhibition of TNF-α [4]: 52.1 ± 0.38%

COc1cccc(-c2cc(=O)c3ccccc3o2)c1N [PD 98059]
Effect: bacterial filamentation (bacterial stress) (S. Typhimurium SL1344): Decrease bacterial filamentation (bacterial stress)^c | Effect: number of intracellular S. Typhimurium (S. Typhimurium SL1344): Increase in the number of intracellular S. Typhimurium
